Reference: patent US20240299321A1, “METHODS TO SENSITIZE CANCER CELLS AND STANDARDIZED SCREENING ASSAY FOR IMMUNOTHERAPY” (THE TRUSTEES OF INDIANA UNIVERSITY, priority 2020, published 2024)

Columns and labels:
[1] = test system: EO771 (Luc+OVA+) tumor organoids; assay: EO771 tumor organoid and OVA-specific CD8+ T cell co-culture cytotoxicity; type: cell-based, mouse; settings: for outcome of combined 2D co-culture, tumor organoid co-culture and antigen presentation screens: 1 μM, 48 h treatment; for organoid dissociation / tumor cell death rates: co-culture with T cells
Description: In accordance with the present disclosure a drug screen platform was used to identify epigenetic inhibitors that increase a cancer cell's sensitivity to CD8+ T-cell cytotoxicity. In one embodiment the drug screen platform is composed of breast tumor organoids and tumor-specific CD8+ T cells. A lentiviral vector expressing OVA was transduced to the Luc+EO771 cells. The resulting OVA+ cells were orthotopically transplanted to C57BL/6 mice to generate syngeneic mammary tumors. The tumors were harvested and dissociated to single cells for 2D culture and only the adherent cells were collected to generate tumor organoids. 2 ml of tumor organoid culture medium (2×10^5 cells per ml) were seeded into 6-well culture plate with ultra-low attachment surface. After 7-day culture, tumor organoids were filtered by cell strainers with nylon mesh between 70 and 150 μm. The tumor organoids with diameter between 70 and 150 μm were treated with drugs for 48 h in the matrigel-free medium. The treated tumor organoids were then co-cultured with the pre-activated and OVA-specific CD8+ T cells from OT-I mice in the breast organoid culture medium containing 10 ng ml-1 IL2 without matrigel for 24 h. The luciferase released from the EO771 cells was measured using a Dual-luciferase report assay system (Promega) on a BioTek Cytation5 imaging reader, to assess the T cell-mediated cytotoxicity effect.
Cytotoxicity of CD8+ T cells in the co-culture with tumor organoids We generated mouse EO771 (Luc+OVA+) cell line that presents OVA257-264 antigen (from chicken ovalbumin) and human MDA-MB-468 (NY-ESO-1+) cell line that presents NY-ESO-1 antigen for use in the T cell-mediated cytotoxicity assay. OVA-specific CD8+ T cells were isolated from the spleen of OT-I mouse that contains transgenic inserts of Tcra-V2 and Tcrb-V5 genes. The transgenic T cell receptor can recognize the ovalbumin peptide SIINFEKL (OVA257-264; SEQ ID NO: 55). Anti-NY-ESO-1 human CD8^+ T cells (CELLERO™) were used to recognize the NY-ESO-1+ MDA-MB-468 cells. Autologous human CD8+ T cells were isolated from patient tumor tissues and amplified in the DMEM/F12 medium supplemented with 10% FBS, 2 mM Ultraglutamine I, 1% penicillin/streptomycin and 10 ng mL-1 of human IL2 for 7 days. The CD8+ T cells were stimulated by the T-activator CD3/CD28 Dynabeads (Gibco, 11452D for mouse and 11131D for human) for 48 h prior to use for cytotoxicity assay. Mouse and human tumor organoids with diameter between 70 and 150 μm were collected and mixed with corresponding CD8+ T cells in DMEM/F12 medium supplemented with 10% FBS, 2 mM Ultraglutamine I, 1% penicillin/streptomycin and 10 ng mL-1 IL2 (Biolegend, mouse: 575402; human: 589102) at a ratio of organoids versus T cells at 1:200 in the microplates with ultra-low attachment surface. The cells were co-cultured for 24 h and subject to further analyses, such as optical and fluorescence imaging, luciferase assay or flow cytometry.
Epigenetic inhibitor screen on CD8+ T cell-mediated cytotoxicity: The epigenetic inhibitor library (Cayman chemical, Cat #11071, Batch #0522205, data not shown) was used for drug screen. Three different screen methods were conducted. In tumor organoid-T cell co-culture, EO771 (Luc+OVA+) tumor organoids with diameter between 70 and 150 μm were seeded with 100 organoids/well and treated with 1 μM of drug for 48 h. The tumor organoids were centrifuged at 100 rcf for 5 min. The medium were replaced with fresh T cell culture medium containing OVA-specific T cells. A total of 20,000 T cells were added in each well. After co-culture for 24 h, cytotoxicity of tumor cells was measured using a Dual-luciferase report 1000 assay system (Promega) in which luciferase expressed exclusively in the live EO771 (Luc+OVA+) cells was detected by a BioTek Cytation5 imaging reader. Low levels of luciferase from survived tumor cells refer to high cytotoxicity in the co-culture. […]

[2] = test system: NY-ESO-1+ MDA-MB-468 cells; assay: NY-ESO-1+ MDA-MB-468 organoid and NY-ESO-1-specific CD8+ T cell co-culture cytotoxicity; type: cell-based, human; settings: MDA-MB-468/CAF organoids; FIG. 2C
Protocol: Breast tumor organoid culture: Single cells isolated from EO771-derived tumors in tumor-bearing C57BL/6 mice were suspended into cold mouse breast cancer culture medium containing 10% Matrigel (Corning) with a concentration of 2×10^5 cells ml^−1. The cells (2 ml) were seeded into each well of pre-warmed 6-well microplate with ultra-low attachment surface (Corning) and cultured at 37° C. with 5% CO2. The same volume of fresh culture medium was added every other day. After 7-day culture, tumor organoids were collected using cell strainers with pore size of 70 and 150 μm. For human tumor organoid culture, 2 ml of NY-ESO-1+ MDA-MB-468 cells with a concentration of 2×10^5 cells ml-1 were seeded into each well of the prewarmed 6-well microplate with ultra-low attachment surface. The cells were cultured for two days to generate tumor spheroids. The resulting spheroids were mixed with cancer associated fibroblasts (CAFs) with a ratio of 2:1 (tumor cells versus CAFs) and cultured in the human breast cancer organoid culture medium3 for 5 days. Finally, the MDA-MB-468 tumor organoids with diameter of 70˜150 μm were used for co-culture with NY-ESO-1-specific human CD8+ T cells (ASTARTE Biologics). Patient-derived organoids (PDOs) were cultured following the same procedures as mouse EO771 tumor organoids using human breast cancer organoid culture medium.
Cytotoxicity of CD8+ T cells in the co-culture with tumor organoids We generated mouse EO771 (Luc+OVA+) cell line that presents OVA257-264 antigen (from chicken ovalbumin) and human MDA-MB-468 (NY-ESO-1+) cell line that presents NY-ESO-1 antigen for use in the T cell-mediated cytotoxicity assay. OVA-specific CD8+ T cells were isolated from the spleen of OT-I mouse that contains transgenic inserts of Tcra-V2 and Tcrb-V5 genes. The transgenic T cell receptor can recognize the ovalbumin peptide SIINFEKL (OVA257-264; SEQ ID NO: 55). […] The cells were co-cultured for 24 h and subject to further analyses, such as optical and fluorescence imaging, luciferase assay or flow cytometry.

[3] = test system: NY-ESO-1-specific CD8+ T cells; assay: T cell effector function in MDA-MB-468 organoid co-culture; type: cell-based, human; settings: vs control groups; FIG. 2D
Protocol: T cell effector function analysis: We measured cytokine and cytolytic granule production (IFNγ, GZMB and TNFα) of CD8+ T cells from mouse tumor samples and tumor organoid-T cell co-culture. Briefly, CD8+ T cells were placed into the 24-well plate at 1×10^6 cells/well, stimulated with 1 μM ionomycin and 50 ng ml-1 phorbol 12-myristate 13-acetate (PMA) (Sigma-Aldrich) for 4 h, in the presence of 5 μg ml-1 Brefeldin A (BFA), with the purpose to amplify the expression of intracellular cytokines61. The cells were stained with APC/Cy7-conjugated anti-CD8a (Biolegend) for 15 min and then fixed by 4% PFA. After washing, cells were stained with PerCP/Cy7-conjugated anti-GZMB, APC-conjugated anti-IFNγ and PE-conjugated anti-TNFα (Biolegend) for 15 min. In flow cytometric analyses, T cells stained with isotype control antibodies were used as negative controls for gating the cytokine or granule-producing cells. For T cells from tumor organoid-T cell co-culture, tumor organoids were first digested into single cells with TrypLE Express at 37° C. before APC/Cy7-conjugated anti-CD8a staining. In the IFNγ and TNFα secretion assay (Biolegend), T cells were stimulated with ionomycin and PMA without the presence of BFA. The media were collected for ELISA assay.

SMILES | outcome of combined 2D co-culture, tumor organoid co-culture and antigen presentation screens [1] | organoid dissociation [1] | tumor cell death rates [1] | promotion of T cell-mediated cytotoxicity after knockdown of B2M ([1]; shB2M OVA+ EO771 cells, FIG. 4G) | T cell-mediated cytotoxicity [2] | GZMB, IFNγ and TNFα expression levels in the CD8+ T cells [3]
Nc1ccccc1NC(=O)CCCCCCC(=O)Nc1ccccc1 [BML-210] | increase the antigenicity of tumor cells and enhance their response to cytotoxic T cells | greater organoid dissociation | higher tumor cell death rates | completely abolished | pronouncedly induced | much higher
C#Cc1cccc(Nc2ncnc3cc(OC)c(OCCCCCCC(=O)NO)cc23)c1 [CUDC-101] | increase the antigenicity of tumor cells and enhance their response to cytotoxic T cells | greater organoid dissociation | higher tumor cell death rates |  | pronouncedly induced | much higher
c1ccc([C@@H]2C[C@H]2NC2CCNCC2)cc1 [GSK-LSD1] | increase the antigenicity of tumor cells and enhance their response to cytotoxic T cells | greater organoid dissociation | higher tumor cell death rates |  | pronouncedly induced | much higher
